Reference: patent publication US9072746B2, “Method for enhancing learning and memory impaired by neurodegenerative disorders and compounds and compositions for effecting the same” (The Board of Trustees of the Leland Stanford Junior …, priority 2010, dated 2015)
Entries after “also recorded” stand apart in the source; their conditions may differ.

What was measured:
Ts65Dn mice [1] = settings: restoration of norepinephrine level; cited from earlier work
Ts65Dn mice [2] = settings: restoration of norepinephrine level; cited from earlier work; remark: listed apart in the source
C57Bl/6J mice = experiment: Contextual fear conditioning memory retrieval (FIG. 10A, B); type: in vivo; settings: betaxolol 1 mg/kg, atenolol 3 mg/kg s.c.
Description: In all experiments xamoterol 3 mg/kg, atenolol 3 mg/kg, and betaxolol 1 mg/kg were injected subcutaneously. […] Results are shown as mean+SEM (ns=not significant, *=p<0.05, and **=p<0.01).

male Ts65Dn mice [3] = experiment: T-maze spontaneous alternation; type: in vivo; settings: betaxolol 1 mg/kg s.c. plus xamoterol 3 mg/kg s.c.
From the text: The T-maze had 3 equal arms (30 cm length, 10 cm width, and 20 cm height). The start arm and 2 goal arms had guillotine gates. This test was based on the rodents' preference to experience a new arm of the T-maze instead of a familiar one ([…], 1998). In each trial, the mouse was placed in the start arm. The gate was then opened and the mouse was able to freely explore the arms. As soon as the mouse entered one goal arm, the sliding gate of the other goal arm closed. The mouse eventually returned to the start arm and the next trial was started. In the next trial, the mouse may recognize the previously chosen goal arm and choose to explore a new arm rather than revisit the previously visited arm. This trial was repeated 11 times per day for 3 consecutive days, for a total of 33 trials. The maze was cleaned with 50% ethanol between trials to eliminate odor. Percent of alternation (number of turns in each goal arm) was used for analysis. This protocol has been described before by Belichenko et al. (2009) and is modified from a Deacon and Rawlins (2006) protocol (Deacon and Rawlins, 2006; Belichenko et al., 2009). […] In this part of the study, activity chamber and three cognitive tests, including T-maze spontaneous alternation, contextual fear conditioning (CFC), and novel object recognition were performed. In T-maze spontaneous alternation and contextual fear conditioning, both Ts65Dn and 2N male mice were divided into three treatment groups including normal saline (Vehicle), xamoterol, and betaxolol plus xamoterol groups. In the novel object recognition test, both Ts65Dn and 2N male mice were divided into two treatment groups, normal saline and xamoterol. The T-maze was performed exactly as previously described. […] On the first day (training day), animals were placed in the fear conditioning chamber, and after a 3-minute pre-shock period, they were exposed to 5 shocks (2 s, 0.5 mA,) with inter-trial intervals of 80 seconds and no tone. On the second day, the animals first received xamoterol, xamoterol plus betaxolol, or saline injection, and one hour later, they were placed in the same chamber for 5 minutes. Similar to the previous description of fear conditioning, freezing was defined as the complete lack of motion for a minimum of o.75 second. The Novel Object Recognition task is conducted in an open field arena (40 cm×40 cm). Mice were habituated in the testing room for 1 hour followed by 5 minutes habituation inside the arena without any objects. On 4th day animals were introduced 3 times to arena with 3 identical subjects for 10 minutes with 3 minutes inter trial intervals. On 5th day (24 hours after trainings) one of the objects replaced by a novel one and the time sniffing of each object were used for analysis. For testing the role of β1 adrenergic system, xamoterol and betaxolol (Tocris Bioscience, Ellisville, Mo.) were injected subcutaneously using 10 ml/kg normal saline as vehicle. Xamoterol, (3 mg/kg) was given one hour before testing and betaxolol (1 mg/kg) was given 30 minutes before testing.

male Ts65Dn mice [4] = experiment: Contextual fear conditioning; type: in vivo; settings: betaxolol 1 mg/kg s.c. plus xamoterol 3 mg/kg s.c.
Description: Contextual and Cued fear conditioning was conducted for evaluation of fear-dependent learning and retrieval in the study. The test was performed using chambers from Coulbourn Instruments (Whitehall, Pa.). On the first day, the animals were placed in a chamber (Context A) for 3 min for baseline recording, followed by 5 tone-shock pairings. The shock (0.5 mA, 2 sec) was delivered following the tone (70 dB, 2 kHz, 20 sec) in each conditional/unconditional stimulus pairing. On the second day a novel chamber (Context B; new room, new olfactory environment, texture of floor, blue plastic inserts for walls, extra source of blue light, and visual cues) was used for cued testing. Three tones without shocks were presented to animals during a 3 min testing period following a 3 min pre-tone period. On the last day of the experiment, the mice were placed in Context A for 5 min without any conditional and unconditional stimulus {modified from the method described by (Saxe et al., 2006)}. Freezing was defined as the complete lack of motion for a minimum of 0.75 second as measured by FreezeFrame software (Actimetrics, Evanston, Ill.). The percent of freezing in each period was reported. For the startle response control test, an acoustic startle reflex apparatus (Med Associates Inc., St. Albans, Vt.) was used. The subjects were acclimated to the animal holder in the startle box for a total of 15 min over 3 consecutive-days prior to the experiment. The animals were exposed to 25 different trials with 10-20 second randomly variable inter-trial intervals. Five different intensities of startle pulses, 0, 90, 100, 110, and 120 dB, were randomly used, and each animal was randomly exposed 5 times to each intensity of the startle pulse. The duration of each startle pulse was 40 ms and the peak amplitude of the startle response in each trial was recorded for analysis. The holding cage on the apparatus was cleaned with 10% alcohol between each animal. […] In this part of the study, activity chamber and three cognitive tests, including T-maze spontaneous alternation, contextual fear conditioning (CFC), and novel object recognition were performed. In T-maze spontaneous alternation and contextual fear conditioning, both Ts65Dn and 2N male mice were divided into three treatment groups including normal saline (Vehicle), xamoterol, and betaxolol plus xamoterol groups. In the novel object recognition test, both Ts65Dn and 2N male mice were divided into two treatment groups, normal saline and xamoterol. The T-maze was performed exactly as previously described. […] On the first day (training day), animals were placed in the fear conditioning chamber, and after a 3-minute pre-shock period, they were exposed to 5 shocks (2 s, 0.5 mA,) with inter-trial intervals of 80 seconds and no tone. On the second day, the animals first received xamoterol, xamoterol plus betaxolol, or saline injection, and one hour later, they were placed in the same chamber for 5 minutes. Similar to the previous description of fear conditioning, freezing was defined as the complete lack of motion for a minimum of o.75 second. The Novel Object Recognition task is conducted in an open field arena (40 cm×40 cm). Mice were habituated in the testing room for 1 hour followed by 5 minutes habituation inside the arena without any objects. On 4th day animals were introduced 3 times to arena with 3 identical subjects for 10 minutes with 3 minutes inter trial intervals. On 5th day (24 hours after trainings) one of the objects replaced by a novel one and the time sniffing of each object were used for analysis. For testing the role of β1 adrenergic system, xamoterol and betaxolol (Tocris Bioscience, Ellisville, Mo.) were injected subcutaneously using 10 ml/kg normal saline as vehicle. Xamoterol, (3 mg/kg) was given one hour before testing and betaxolol (1 mg/kg) was given 30 minutes before testing.

Row | SMILES | effect on hippocampal-mediated contextual deficit in fear conditioning (Ts65Dn mice [1]) | effect on nesting behavior (Ts65Dn mice [2]) | effect on memory retrieval of contextual fear conditioning (C57Bl/6J mice) | effect of betaxolol on xamoterol's rescue of spontaneous alternation (male Ts65Dn mice [3]) | effect of betaxolol on xamoterol's rescue of contextual fear conditioning (male Ts65Dn mice [4])
1 | N[C@H](C(=O)O)[C@H](O)c1ccc(O)c(O)c1 [L-DOPS, L-threo-3,4-dihydroxyphenylserine] | restored | restored |  |  | 
2 | CC(C)NCC(O)COc1ccc(CCOCC2CC2)cc1 (stereo not drawn) [betaxolol] |  |  | impaired | completely reversed; also recorded: prevented or blocked; also recorded: blocked; also recorded: betaxolol prevents this effect | completely reversed; also recorded: prevents or blocks; also recorded: completely blocked; also recorded: betaxolol prevents this effect
3 | CC(C)NCC(O)COc1ccc(CC(N)=O)cc1 (stereo not drawn) [atenolol] |  |  | did not have such an effect |  | 
